Assays:
U2OS cells [1] = assay: Transmission electron microscopy of autophagic vesicles; type: cell-based, human; conditions: compared with control cells in full nutrients
Method: Transmission electron microscopy (TEM). U2OS cells in 10-cm dishes were transfected with control or PTPRS siRNAs for 48 h. Cells were briefly trypsinized, pelleted, rinsed, and resuspended in 2% glutaraldehyde fixative. Cell pellets were embedded in 2% agarose, postfixed in osmium tetroxide, and dehydrated with an acetone series. […] Ultrathin sections (70 nm) were generated with a Power Tome XL (Boeckeler Instruments) and placed on copper grids. Cells were examined using a JEOL 100CX Transmission Electron Microscope at 100 kV. Autophagic structures were quantified from images encompassing approximately 8.5 μm2 of cell area each.

U2OS cells [2] = assay: LC3B immunofluorescence of autophagic vesicles; type: cell-based, human; conditions: full growth medium, 25 uM chloroquine, 1 hr
Method: Immunofluorescence and western blot analyses. U2OS cells were seeded at a density of 35,000 cells per well in McCoy's 5A medium supplemented with 10% FBS on number 1.5 coverglass in 24-well tissue culture plates (for immunofluorescence) or 150,000 cells per well on 6-well dishes (for western blot). After 24 h, siRNAs were transfected at a final concentration of 25 nM using 2 μl HiPerfect transfection reagents (Qiagen) per ml medium. Control siRNA was All-star negative control (Qiagen) and PTPRS siRNAs were two unique sequences (SI02759288, SI03056284, Qiagen). […] For western blots, cells were lysed (in 10 mM KPO4, 1 mM EDTA, 10 mM MgCl2, 5 mM EGTA, 50 mM bisglycerophosphate, 0.5% NP40, 0.1% Brij35, 0.1% sodium deoxycholate, 1 mM NaVO4, 5 mM NaF, 2 mM DTT, AEBSF, aprotinin, bestatin hydrochloride, E64, leupeptin, and pepstatin A and 20 μg of total protein was resolved by SDS-PAGE. Membranes were probed with primary antibodies (LC3B, Cell Signaling Technologies; α-tubulin, Sigma) for 16 h at 4° C. followed by secondary antibodies (HRP-linked anti-rabbit or anti-mouse IgG) for 1 h at room temperature. Proteins were detected by enhanced chemiluminescence. For immunofluorescence, cells were fixed with 3.7% formaldehyde, permeabilized with 0.2% Triton-X 100, and blocked with 3% bovine serum albumin (BSA) in PBS. […]

For `CCN(CC)CCCC(C)Nc1ccnc2cc(Cl)ccc12` (centres unmarked) [chloroquine], the “autophagic vesicles (AVs) by TEM” value (U2OS cells [1]) was “evident” and the “LC3-positive aggregates (AVs)” value (U2OS cells [2]) was “LC3-positive aggregates accumulate”.
